# US7803813B2, “Substituted 2-carbonylamino-6-piperidinaminopyridines and substituted 1-carbonylamino-3-piperidinaminobenzenes as 5-HT1F agonists” (Eli Lilly and Company, priority 2003, dated 2010)
# Structures can show the parent of a compound that is named as a salt.
# Test system: rabbit saphenous vein
# Assay: Rabbit saphenous vein contraction
# Details: not given
# Protocol: Bend the tips of two 30-gauge stainless steel hypodermic needles into an L-shape and slip them into the lumen of the polyethylene tubing. Gently push vein tissue from the cannula onto the needles. Separate the needles and attach the lower needle with thread to a stationary glass rod and the upper needle with thread to a force transducer (Statham UC-3). Mount the tissues in organ baths containing 10 mL of modified Krebs' solution. Maintain tissue bath solutions at 37° C. and […] […] Apply an initial optimum resting force of 4 grams to the vein tissue. Record isometric contractions as changes in grams of force on a Beckman Dynograph with Statham UC-3 transducers and microscale accessory attachments. […] Flush the bath, allow the tissue to re-equilibrate under a 4 gram force, add test compound and record the force of contraction. Add additional compound to achieve the next concentration in a range of compound concentrations to generate cumulative agonist concentration-response curves for each test compound. Tissues can be used to generate up to two agonist concentration-response curves. […] Two important parameters can be measured with this vasoconstriction assay, saphenous vein contraction (EC50) and maximal contraction as a percentage of the maximal KCl response (%max KCl).
row,corrected vasoconstriction EC50 (EC50 divided by %max KCl),Compound
1,0.0103 µM,CNS(=O)(=O)Cc1ccc2[nH]cc(CCN(C)C)c2c1 [sumatriptan]

# Same assay, conditions: Oryctolagus cuniculus
row,EC50,Compound
1,0.66 µM,CNS(=O)(=O)Cc1ccc2[nH]cc(CCN(C)C)c2c1 [sumatriptan]

# Test system: not given
# Assay: not given
# Details: not given
row,Compound,melting point
1,CN1CCC(Nc2cccc(NC(=O)c3ccccc3OC(F)(F)F)c2)CC1.Cl.Cl,159 to 162 °C
2,CN1CCC(N(C)c2cccc(NC(=O)c3c(F)cc(F)cc3F)c2)CC1.Cl.Cl,199 to 200 °C
3,Cl.Cl.O=C(Nc1cccc(NC2CCNCC2)c1)c1ccc(F)cc1Cl,255 to 257 °C
4,CN1CCC(N(C)c2cccc(NC(=O)c3ccccc3Br)c2)CC1.Cl.Cl,196 to 197 °C
5,CN1CCC(N(C)c2cccc(NC(=O)c3c(Cl)cccc3Cl)c2)CC1.Cl,164.2 °C
6,Cc1ccccc1C(=O)Nc1cccc(N(C)C2CCN(C)CC2)c1.Cl,82.4 °C
7,CN1CCC(N(C)c2cccc(NC(=O)c3ccccc3C(F)(F)F)c2)CC1.Cl,84.5 °C
8,C[C@H]1C[C@@H](Nc2cccc(NC(=O)c3ccc(F)cc3Cl)c2)CCN1.Cl,202 °C (dec.)
9,CN1CCC(Nc2cccc(NC(=O)c3c(F)cccc3Cl)c2)CC1.Cl.Cl,192 to 194 °C
10,C[C@H]1C[C@@H](Nc2cccc(NC(=O)c3ccc(F)cc3Cl)c2)CCN1C.Cl,91 to 94 °C
11,C[C@@H]1C[C@H](Nc2cccc(NC(=O)c3ccc(F)cc3Cl)c2)CCN1.Cl,182 to 185 °C
12,C[C@@H]1C[C@H](Nc2cccc(NC(=O)c3ccc(F)cc3Cl)c2)CCN1C.Cl,159 to 162 °C
13,CN1CCC(Nc2cccc(NC(=O)c3c(F)cccc3F)c2)CC1.Cl.Cl,198 °C (dec.)
14,CN1CCC(Nc2cccc(NC(=O)c3ccc(F)cc3F)c2)CC1.Cl.Cl,262 °C (dec.)
15,CN1CCC(Nc2cccc(NC(=O)c3ccc(F)c(F)c3F)n2)CC1.Cl,231.4 °C (dec.)
16,CN1CCC(Nc2cccc(NC(=O)c3c(F)cc(F)cc3F)c2)CC1.Cl.Cl,257 °C (dec.)
17,CN1CCC(N(C)c2cccc(NC(=O)C3CCCCC3)n2)CC1.Cl,250 to 252 °C
18,CN1CCC(Nc2cccc(NC(=O)c3ccccc3Br)c2)CC1.Cl.Cl,192 to 193 °C
19,CN1CCC(Nc2cccc(NC(=O)c3ccccc3Cl)c2)CC1.Cl.Cl,206 to 208 °C
20,CC(C)n1cc(CCN2CCC(N(C)c3cccc(NC(=O)c4ccc(F)cc4)n3)CC2)cn1.Cl,85.8 °C
21,CN1CCC(N(C)c2cc(F)cc(NC(=O)c3sccc3Br)c2)CC1 (as salt: hydrochloric acid salt),175 to 180 °C
22,CN1CCC(N(C)c2cc(F)cc(NC(=O)c3ccc(F)cc3)c2)CC1 (as salt: hydrochloric acid salt),175 °C
23,CN1CCC(N(C)c2cc(F)cc(NC(=O)c3ccc(F)cc3F)c2)CC1 (as salt: hydrochloric acid salt),175 °C

# Continued, values first:
row,melting point,Compound
1,180 °C,CN1CCC(Nc2cccc(NC(=O)c3ccc(F)cc3Cl)c2)CC1.Cl.Cl
2,172 °C,CN1CCC(N(C)c2cccc(NC(=O)c3ccc(F)cc3Cl)c2)CC1.Cl.Cl
3,214 to 217 °C,CN1CCC(N(C)c2cccc(NC(=O)c3c(F)cccc3Cl)c2)CC1.Cl.Cl
4,165 to 168 °C,CN1CCC(N(C)c2cccc(NC(=O)c3ccc(F)cc3F)c2)CC1.Cl.Cl
5,133 to 136 °C,CN1CCC(N(C(=O)C2CC2)c2cccc(NC(=O)c3ccc(F)cc3Cl)c2)CC1.Cl
6,76.1 °C,CN1CCC(N(C)c2cccc(NC(=O)c3ccc(F)cc3)c2)CC1.Cl
7,84.9 °C,CN1CCC(Nc2cccc(NC(=O)c3ccc(F)cc3C(F)(F)F)n2)CC1.Cl
8,126 to 128 °C,CN1CCC(N(C)c2cccc(NC(=O)c3cccs3)n2)CC1.Cl
9,152.4 °C,CN(c1cccc(NC(=O)c2ccc(F)cc2)n1)C1CCNCC1.Cl
10,152.1 °C,CN(c1cccc(NC(=O)c2ccc(F)cc2Cl)n1)C1CCNCC1.Cl
11,75.6 °C,CCN1CCC(N(C)c2cccc(NC(=O)c3ccc(F)cc3)n2)CC1.Cl
12,132.9 °C,CCN1CCC(N(C)c2cccc(NC(=O)c3ccc(F)cc3Cl)n2)CC1.Cl
13,84.7 °C,CCCN1CCC(N(C)c2cccc(NC(=O)c3ccc(F)cc3)n2)CC1.Cl
14,258 °C (dec.),CCCN1CCC(N(C)c2cccc(NC(=O)c3ccc(F)cc3Cl)n2)CC1.Cl
15,81.6 °C,CN(c1cccc(NC(=O)c2ccc(F)cc2)n1)C1CCN(CC2CC2)CC1.Cl
16,257.5 °C,CN(c1cccc(NC(=O)c2ccc(F)cc2Cl)n1)C1CCN(CC2CC2)CC1.Cl

row,melting point,Compound
1,96.7 °C,CC(C)n1cc(CCN2CCC(N(C)c3cccc(NC(=O)c4ccc(F)cc4Cl)n3)CC2)cn1.Cl
2,170 to 175 °C,CN1CCC(N(C)c2cc(F)cc(NC(=O)c3ccccc3Cl)c2)CC1 (as salt: hydrochloric acid salt) (hydrate or solvate)
3,229 to 231 °C,CN1CCC(N(C)c2cccc(NC(=O)c3ccc(F)cc3Cl)n2)CC1.Cl (hydrate or solvate)
4,250 to 252 °C,CN1CCC(N(C)c2cccc(NC(=O)c3ccc(F)cc3)n2)CC1.Cl (hydrate or solvate)
5,274 to 277 °C,CN1CCC(N(C)c2cccc(NC(=O)c3ccncc3)n2)CC1.Cl (hydrate or solvate)
6,116 to 119 °C,CN1CCC(N(C)c2cccc(NC(=O)c3ccco3)n2)CC1.Cl (hydrate or solvate)
7,216 to 218 °C,CCC(=O)Nc1cccc(N(C)C2CCN(C)CC2)n1.Cl (hydrate or solvate)
8,258 to 260 °C,CN1CCC(N(C)c2cccc(NC(=O)C3CCC3)n2)CC1.Cl (hydrate or solvate)
9,258 to 260 °C,CN1CCC(N(C)c2cccc(NC(=O)C3CC3)n2)CC1.Cl (hydrate or solvate)
10,308 °C (dec.),CN1CCC(N(C)c2cccc(NC(=O)c3c(F)cccc3F)n2)CC1.Cl (hydrate or solvate)
11,302 °C (dec.),CN1CCC(N(C)c2cccc(NC(=O)c3c(F)cc(F)cc3F)n2)CC1.Cl (hydrate or solvate)
12,90 to 92 °C,CN1CCC(N(C)c2cccc(NC(=O)c3ccccc3Cl)n2)CC1.Cl (hydrate or solvate)
13,283 to 286 °C,CN1CCC(N(C)c2cccc(NC(=O)c3c(F)cccc3Cl)n2)CC1.Cl (hydrate or solvate)
14,100 to 102 °C,CN1CCC(N(C)c2cccc(NC(=O)c3ccc(F)cc3C(F)(F)F)n2)CC1.Cl (hydrate or solvate)
15,102 to 104 °C,CN1CCC(N(C)c2cccc(NC(=O)c3ccccc3OC(F)(F)F)n2)CC1.Cl (hydrate or solvate)
